Measured values from patent publication US8557800B2, “Sphingosine kinase inhibitors” (Apogee Biotechnology Corporation, priority 2005, dated 2013).

What was measured:
DU145 (prostate) = assay: Human tumor cell line panel, sulforhodamine B; format: cell-based; settings: DU-145, 48 hours, mean ± sd
Caco-2 (colon) = assay: Human tumor cell line panel, sulforhodamine B; format: cell-based; settings: 48 hours, mean ± sd

`O=C(NCc1ccncc1)C12CC3CC(C1)CC(c1ccc(Cl)cc1)(C3)C2` [Compound 62, 3-(4-Chloro-phenyl)-adamantane-1-carboxylic acid (pyridin-4-ylmethyl)-amide] was tested. Which IC50 (DU145 (prostate)) did it give?
Its IC50 is 21.9 ± 1.5 µM.

What about the IC50 (Caco-2 (colon)) of the same compound?
The IC50 was 11.8 ± 5.6 µM.
